Measured values taken from patent US11999745B2, “Pharmaceutical compounds” (Heptares Therapeutics Limited, priority 2020, dated 2024).
≈ marks a conversion by molar mass, not a printed value. Where “and” joins values, the source holds several entries; their conditions need not be identical. Equal values may be shown once. Read-outs that look alike come from different tables or passages of the source.

Tests used:
[1] = Hepatocyte stability, CLint (in vitro hepatocytes), mouse; assay type: in vitro ADME; conditions: pooled cryopreserved hepatocytes, 1.0 million cells/mL, 37° C., read-out: in vitro intrinsic clearance (CLint)
Method: Hepatocyte stability assays were performed using pooled cryopreserved hepatocytes (Bioreclamation). Test compounds prepared in DMSO, were incubated at an initial concentration of 1 μM (0.25% DMSO final, n=2) with hepatocytes at cell densities of 1.0 million cells/mL at 37° C. Aliquots were removed at 0.5, 5, 10, 15, 30, 60 and 120 minutes for termination of reactions and compound extraction with acetonitrile containing an analytical internal standard (0.5 μM carbamazepine). Samples were centrifuged and the supernatant fractions analysed for parent compound by mass spectrometry (LC-MS/MS). The amount of compound remaining (expressed as %) was determined from the MS response in each sample relative to that in the T=0 samples (normalised for internal standard). Ln plots of the % remaining were used to determine the half-life for compound disappearance using the relationship: Half-Life(min)=−0.693/λ (where λ is the slope of the Ln % remaining vs time curve).

[2] = Aqueous solubility (thermodynamic), LCMS/MS method; assay type: physicochemical; conditions: 1 mg/mL theoretical, individual replicates; for solubility thermodynamic at 4 h: 25 °C, thermodynamic from solid
Method: A 10 mM stock solution (in DMSO) was prepared for the test sample. From the 10 mM stock solution, a working solution of 1 μM was prepared by diluting the test sample in mobile phase solution (typically, methanol: 2 mM ammonium acetate containing suitable internal standard (IS)—carbamazepine/any other suitable IS). Further, the working solution was serially diluted in mobile phase solution up to 5 to 6 linearity point to prepare standard solution for plotting calibration curve. The area for each standard sample is analyzed in singlet using LCMS/MS. The normalized area values are plotted vs. concentration to achieve calibration equation to determine the unknown sample. […] Test compound was dispersed in buffer solution using a vortex mixer.
The resulting solution are then kept on RotoSpin (shaker) at 50 rpm for 4 hours for TD solubility at room temperature (25° C.). After the incubation period, the solution is filtered using 0.45 micron PVDF injector filters in order to remove the insoluble fraction of the compound. Filtrate is diluted in mobile phase and subsequently the AUC is ascertained for diluted samples using LCMS/MS. From the AUC of test sample the corresponding concentration is calculated using 5 to 6 point linearity/calibration curve.
All numbers reported as uM.

[3] = Unbound brain/unbound plasma concentration ratio (Kp,uu); assay type: in vivo; conditions: brain and plasma (unbound); measured unbound plasma:brain distribution; parameter used in prediction; read-out: Kpuu (unbound brain/unbound plasma concentration)
Source text: Kp,uu—ratio of unbound brain concentration/unbound plasma concentration. Quantifies the net flux of drug across the blood brain barrier, including the quantitative role of transporters, without being confounded by nonspecific binding in plasma and brain tissues. Gupta et al, DMD, 2006; Hammarlund-Udenaes et al, PharmRes, 2008

M1 receptor = target: T1, M1 receptor (Homo sapiens, UniProt P11229); assay: Predicted target engagement for human efficacious dose (allometric scaling)
T1 sequence (P11229 1-460): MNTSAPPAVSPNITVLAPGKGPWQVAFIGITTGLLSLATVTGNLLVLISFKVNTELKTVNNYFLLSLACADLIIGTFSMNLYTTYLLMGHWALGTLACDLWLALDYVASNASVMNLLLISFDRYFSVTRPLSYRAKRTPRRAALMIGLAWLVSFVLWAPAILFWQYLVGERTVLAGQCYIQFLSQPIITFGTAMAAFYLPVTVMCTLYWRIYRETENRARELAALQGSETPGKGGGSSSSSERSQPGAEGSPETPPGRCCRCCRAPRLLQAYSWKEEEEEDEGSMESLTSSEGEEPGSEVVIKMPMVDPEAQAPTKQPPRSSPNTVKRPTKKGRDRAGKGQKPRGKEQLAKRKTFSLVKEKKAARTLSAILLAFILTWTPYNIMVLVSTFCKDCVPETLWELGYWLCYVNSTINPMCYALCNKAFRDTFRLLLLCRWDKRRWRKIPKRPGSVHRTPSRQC
Source text: Based on a measured equivalent unbound plasma:brain distribution profile (Kpuu=1) the exposures shown represent those in either the plasma or brain compartment.

[4] = parameter used in human receptor occupancy prediction

CC(C)(C)NC(=O)C1CCN([C@H]2C[C@H]3CC[C@@H](C2)N3c2nc(C(F)(F)F)no2)CC1 [Example 1, N-tert-butyl-1-{(1R,3r,5S)-8-[3-(trifluoromethyl)-1,2,4-oxadiazol-5-yl]-8-azabicyclo[3.2.1]octan-3-yl}piperidine-4-carboxamide]
hepatocyte CLint at 1 μM [1]: 7 µL/min/1e6 cells
Thermodynamic solubility, Blank FaSSIF pH 6.5 (n = 4) ([2]; Blank FaSSIF (Aq. Buffer) pH 6.5, 4 hours, 25° C.): 1941 uM and 1937 uM and 2022 uM
solubility thermodynamic at 4 h ([2]; Blank FaSSIF (aqueous buffer), pH 6.5, aqueous buffer, Blank FaSSIF (Aq. Buffer) pH 6.5, 4 hours, read-out: Thermodynamic solubility, Blank FaSSIF pH 6.5 (n = 4)): 1740 µM (≈ 749 µg/mL)
Thermodynamic solubility, FaSSIF pH 6.5 (n = 4) ([2]; FaSSIF pH 6.5, 4 hours, 25° C.): 2448 uM and 1713 uM and 2104 uM
solubility thermodynamic at 4 h ([2]; FaSSIF, pH 6.5, fassif, FaSSIF pH 6.5, 4 hours, read-out: Thermodynamic solubility, FaSSIF pH 6.5 (n = 4)): 2010 µM (≈ 862 µg/mL)
Thermodynamic solubility, SGF pH 1.2 (n = 4) ([2]; SGF pH 1.2, 4 hours, 25° C.): 1988 uM and 1702 uM and 2039 uM
solubility thermodynamic at 4 h ([2]; SGF, pH 1.2, simulated gastric fluid, SGF pH 1.2, 4 hours, read-out: Thermodynamic solubility, SGF pH 1.2 (n = 4)): 2080 µM (≈ 893 µg/mL)
Kp uu [3]: 1
predicted dose to reach the unbound brain exposure required for M1 agonist efficacy (M1 receptor; human, oral, 6 hours unbound brain exposure over recombinant M1 EC50): approx. 22 mg
predicted human half-life (M1 receptor; human, predicted from allometric scaling): 15 h
CI (clearance) (M1 receptor; [4]): 4.4 mL/min/kg
F (bioavailability) (M1 receptor; [4]): 0.61
Ka (M1 receptor; [4]): 1
V (M1 receptor; [4]): 5.9
